Laboratory results reported in patent publication US12109220B2, “Compositions for use in the reduction of nociception in children” (SOCIETE DES PRODUITS NESTLE S.A., priority 2017, dated 2024).
Entries after “also recorded” stand apart in the source; their conditions may differ.

Target: GPR35 (Homo sapiens, UniProt Q9HC97)
Test: PathHunter β-Arrestin assay of GPR35 activation (DiscoverX)
Format: cell-based
Conditions: for activation of GPR35 (in words): single HMOs, highest concentration tested 10 mM; for EC50: cell based β-arrestin recruitment, 3x dilutions from 10 mM, duplicate
Experimental: Six human milk oligosaccharides (LNnT, LNT, 2-FL, diFL, 6′ SL and 3-SL) were sreened for their ability to activate the GPR35 receptor in an in vitro assay.
The GPR35 cell line was expanded from frozen stocks and cultured according to standard procedures. Cells were seeded in a total volume of 20 μL into white walled, 384-well microplates and incubated at 37° C. for the appropriate time prior to testing. All testing was done in duplicate.
HMO samples were shipped to DiscoverX as concentrated stocks in Phosphate Buffered saline. On the test day, a 5× compound working intermediate was prepared in PBS. Five μL of 5× sample was added to cells and incubated at room temperature for 3 to 5 hours.
Assay signal was generated through a single addition of 12.5 μL (50% v/v) of PathHunter Detection reagent cocktail, followed by one-hour incubation at room temperature. Microplates were read following signal generation with a PerkinElmer Envision™ instrument for chemiluminescent signal detection.
Zaprinast (which is known to be an activator of GPR35) was used as positive control.
Percentage activity was calculated using the following formula: % Activity=100%×(mean RLU of test sample−mean RLU of vehicle control)/(mean MAX control ligand−mean RLU of vehicle control).
Dose-responses were generated by iterative 3× dilutions of the highest concentration tested (10 mM).
The samples were diluted in 1×PBS (pH ˜7) at 5× concentrations and sent to DiscoverX. The GPR35 activation assay was performed as described in Example 2.

Sequence of GPR35 (Q9HC97 whole entry): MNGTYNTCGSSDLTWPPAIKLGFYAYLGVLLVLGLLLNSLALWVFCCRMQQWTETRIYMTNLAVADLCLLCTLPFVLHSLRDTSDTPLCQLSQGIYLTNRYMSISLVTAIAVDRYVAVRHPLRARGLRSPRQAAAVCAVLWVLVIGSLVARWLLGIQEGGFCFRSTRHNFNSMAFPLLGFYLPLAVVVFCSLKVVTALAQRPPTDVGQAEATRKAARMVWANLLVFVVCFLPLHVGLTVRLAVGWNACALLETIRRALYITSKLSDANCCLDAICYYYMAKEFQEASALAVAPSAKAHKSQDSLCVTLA
Sequence of GPR35 (P32121 whole entry partner): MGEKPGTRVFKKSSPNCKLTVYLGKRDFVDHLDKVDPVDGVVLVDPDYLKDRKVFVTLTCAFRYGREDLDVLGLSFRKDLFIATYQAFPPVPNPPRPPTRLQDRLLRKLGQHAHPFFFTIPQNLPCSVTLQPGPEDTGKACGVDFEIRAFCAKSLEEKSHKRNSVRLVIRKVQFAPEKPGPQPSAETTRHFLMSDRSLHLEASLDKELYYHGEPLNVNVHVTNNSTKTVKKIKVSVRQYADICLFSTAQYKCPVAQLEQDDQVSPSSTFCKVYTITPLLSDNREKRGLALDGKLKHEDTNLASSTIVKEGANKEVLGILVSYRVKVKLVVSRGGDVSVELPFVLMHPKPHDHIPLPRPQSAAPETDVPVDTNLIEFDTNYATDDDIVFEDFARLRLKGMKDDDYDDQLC

SMILES | activation of GPR35 (in words) | activation of GPR35 (in words) (listed as 3-SL) | EC50 [mM] | activation of GPR35 (in words) (listed as difucosyllactose)
CC(=O)N[C@H]1[C@H](O[C@H]2[C@@H](O)[C@@H](CO)O[C@@H](O[C@H]3[C@H](O)[C@@H](O)C(O)O[C@@H]3CO)[C@@H]2O)O[C@H](CO)[C@@H](O[C@@H]2O[C@H](CO)[C@H](O)[C@H](O)[C@H]2O)[C@@H]1O (mixture of isomers) [LNnT, lacto-N-neotetraose] | No activation; also recorded: do not activate |  |  | 
CC(=O)N[C@H]1[C@H]([C@H](O)[C@H](O)CO)O[C@@](O[C@H]2[C@@H](O)[C@@H](CO)O[C@@H](O[C@H]3[C@H](O)[C@@H](O)C(O)O[C@@H]3CO)[C@@H]2O)(C(=O)O)C[C@@H]1O (stereo partly shown) [3SL, 3′-sialyllactose] | No activation | do not activate |  | 
CC(=O)N[C@H]1[C@H]([C@H](O)[C@H](O)CO)O[C@@](OC[C@H]2O[C@@H](O[C@H]3[C@H](O)[C@@H](O)[C@H](O)O[C@@H]3CO)[C@H](O)[C@@H](O)[C@H]2O)(C(=O)O)C[C@@H]1O [6′SL, 6′-sialyllactose] |  |  | 6.5 | 

Second part, the compound after the results:

activation of GPR35 (in words) | activation of GPR35 (in words) (listed as 3-SL) | EC50 [mM] | activation of GPR35 (in words) (listed as difucosyllactose) | SMILES
 |  | 4.5 |  | CC(=O)N[C@H]1[C@H](O[C@H]2[C@@H](O)[C@@H](CO)O[C@@H](O[C@H]3[C@H](O)[C@@H](O)C(O)O[C@@H]3CO)[C@@H]2O)O[C@H](CO)[C@@H](O)[C@@H]1O[C@@H]1O[C@H](CO)[C@H](O)[C@H](O)[C@H]1O (stereo partly shown) [LNT, lacto-N-tetraose]
No activation |  |  | do not activate | C[C@@H]1O[C@@H](O[C@H]2[C@H](O[C@H]3[C@H](O[C@@H]4O[C@@H](C)[C@@H](O)[C@@H](O)[C@@H]4O)[C@@H](O)C(O)O[C@@H]3CO)O[C@H](CO)[C@H](O)[C@@H]2O)[C@@H](O)[C@H](O)[C@@H]1O (stereo partly shown) [diFL, difucosyllactose]
